Literature values, collected in patent US20110052580A1, “USE OF PICOPLATIN AND BEVACIZUMAB TO TREAT COLORECTAL CANCER” (Poniard Pharmaceuticals, Inc., priority 2008, published 2011).

What was measured:
[1] = tested on: metastatic colorectal cancer (MCRC); conditions: single agent therapy
[2] = tested on: xenotransplant models of colon cancer; conditions: mouse, in vivo
[3] = tested on: human vascular endothelial growth factor (VEGF)
Sequence of human vascular endothelial growth factor (VEGF) (P15692 207-311 limits assumed): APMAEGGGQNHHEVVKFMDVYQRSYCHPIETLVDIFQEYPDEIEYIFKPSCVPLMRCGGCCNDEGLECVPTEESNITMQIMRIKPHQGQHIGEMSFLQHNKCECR

Row | Compound | Median survival [1] [months] | Progression-free survival, median [1] [months] | Response rate [1] [%] | Effect on metastatic disease progression [2] | Effect on microvascular growth [2] | Binding to and inhibition of VEGF [3]
1 | CCc1c2c(nc3ccc(OC(=O)N4CCC(N5CCCCC5)CC4)cc13)-c1cc3c(c(=O)n1C2)COC(=O)[C@]3(O)CC [irinotecan] | ~12 | 4.3 | 18 |  |  | 
2 | O=C1[O][Pt]2([NH][C@@H]3CCCC[C@H]3[NH]2)[O]C1=O [oxaliplatin] | ~14.5 | 4.0 | 12 |  |  | 
3 | bevacizumab: recombinant humanized monoclonal IgGl antibody that binds to and inhibits human vascular endothelial growth factor (VEGF) |  |  |  | inhibition of metastatic disease progression | reduction of microvascular growth | binds to and inhibits the biologic activity of human vascular endothelial growth factor (VEGF)
